Measured values taken from publication PMC3726336, “Product inhibition of cellulases studied with ^14C-labeled cellulose substrates” (Biotechnology for Biofuels, 2013).
Read-outs that look alike come from different tables or passages of the source.

Experiments:
AtCel7A = AtCel7A (Acremonium thermophilum, UniProt A7WNT9); test: Cellobiose inhibition of MUL hydrolysis by AtCel7A; assay type: biochemical; conditions: MUL substrate (5 μM)
Text: The cellobiose inhibition of GH7 CBHs is most often studied on low-Mw model substrates. However, it has been shown that the inhibition of CBHs acting on low-Mw substrates appears to be much stronger than that on cellulose substrates. The Ki values for cellobiose inhibition of GH7 CBHs measured on low-Mw substrates are in the micromolar range [44, 51, 52], whereas those measured on cellulose are in the low- to high-millimolar range [28, 31, 32]. […] Unfortunately, the inhibition of this enzyme on cellulose has not been studied. We also studied the cellobiose inhibition of GH7 CBHs acting on MUL. The initial rates of MUL hydrolysis measured in the presence and absence of added cellobiose were first analyzed according to Equation 1, and the IC50 values were found using Equation 2. […] The inhibition of MUL hydrolysis is attributable to the binding of cellobiose to the product sites (+1/+2) of TrCel7A [52]. […]
For the inhibition of enzyme acting on the low-Mw substrate, the initial rates of the hydrolysis of MUL in the presence and absence of added cellobiose were followed. […] Reactions were stopped by the addition of NH3 (final concentration 0.1 M), and the released 4-methylumbelliferone was quantified by fluorescence using excitation and emission wavelengths of 360 nm and 450 nm, respectively.

TaCel7A = TaCel7A (Thermoascus aurantiacus, UniProt A7WNU2); test: Inhibition of synergistic hydrolysis of 14C-BC by TaCel7A (supplemented with EG TrCel5A); assay type: biochemical; conditions: 14C-BC substrate, read-out: IC50 for cellobiose
TaCel7A, sequence (A7WNU2 entry or part of it): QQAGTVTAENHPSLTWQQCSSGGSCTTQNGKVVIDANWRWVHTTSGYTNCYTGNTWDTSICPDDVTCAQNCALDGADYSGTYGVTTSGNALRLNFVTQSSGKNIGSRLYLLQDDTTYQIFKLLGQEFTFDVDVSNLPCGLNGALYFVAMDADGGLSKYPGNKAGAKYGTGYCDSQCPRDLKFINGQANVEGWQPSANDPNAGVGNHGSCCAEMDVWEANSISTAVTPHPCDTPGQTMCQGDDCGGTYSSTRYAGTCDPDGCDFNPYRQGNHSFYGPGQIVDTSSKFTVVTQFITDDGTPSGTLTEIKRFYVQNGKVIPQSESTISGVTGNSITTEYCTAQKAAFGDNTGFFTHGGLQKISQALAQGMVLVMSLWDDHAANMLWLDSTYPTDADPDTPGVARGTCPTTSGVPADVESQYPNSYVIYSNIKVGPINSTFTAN
Experimental: To study the cellobiose inhibition of GH7 CBHs, the synergistic hydrolysis of ^14C-BC in the presence of added cellobiose was followed (Figure 3, Additional file 1: Figures S1 and S2). Because the cellobiose inhibition of the EG TrCel5A is much weaker than that of GH7 CBHs, the inhibition of synergistic hydrolysis apparently reflects the inhibition of CBH. The strength of cellobiose inhibition was analyzed using plots of (DCB/DCB=0) versus [cellobiose], where DCB and DCB=0 represent the degree of conversion of ^14C-BC in the presence and absence of cellobiose, respectively (Figure 4, Additional file 1: Figure S3). […]
where [CB] is the concentration of cellobiose; [^14CBC] is the concentration of ^14C-BC used in the experiment; and C1, C2 and H are empirical constants. Equation 5 differs from Equation 1 by the presence of constant H. H was included to improve the fit and is a constant that accounts for the background radioactivity (the degree of conversion that is independent of CBH). The degree of conversion resulting from the activity of the EG was measured in a separate experiment (Additional file 1: Figure S4) and was subtracted from the degree of conversion resulting from the synergistic hydrolysis. […] Provided with the values of C1, C2 and H, the value of IC50 was calculated as follows: […]

AtCel7A, sequence (A7WNT9 entry or part of it): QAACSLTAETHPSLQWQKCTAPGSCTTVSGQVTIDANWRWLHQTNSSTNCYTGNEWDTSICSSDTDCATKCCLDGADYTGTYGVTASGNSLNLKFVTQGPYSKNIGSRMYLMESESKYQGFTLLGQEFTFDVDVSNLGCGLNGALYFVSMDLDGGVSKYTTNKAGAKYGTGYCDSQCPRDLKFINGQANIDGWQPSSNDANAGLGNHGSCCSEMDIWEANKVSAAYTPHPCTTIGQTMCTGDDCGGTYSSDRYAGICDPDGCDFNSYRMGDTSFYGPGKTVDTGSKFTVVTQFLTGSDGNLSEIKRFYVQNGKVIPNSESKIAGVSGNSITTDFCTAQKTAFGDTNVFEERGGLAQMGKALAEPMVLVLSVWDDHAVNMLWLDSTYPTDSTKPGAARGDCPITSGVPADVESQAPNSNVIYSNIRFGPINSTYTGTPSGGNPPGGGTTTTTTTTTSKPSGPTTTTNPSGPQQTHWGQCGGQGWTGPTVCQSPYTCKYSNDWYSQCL

O=C[C@H](O)[C@@H](O)[C@H](O[C@@H]1O[C@H](CO)[C@@H](O)[C@H](O)[C@H]1O)[C@H](O)CO [cellobiose, Cellobiose]
Ki (AtCel7A; 35°C): 95 µM
Ki (AtCel7A; 50°C): 233 µM
IC50 (TaCel7A; 35°C): 580 ± 350 µM
IC50 (TaCel7A; 50°C): 930 ± 100 µM
